Laboratory results published in article PMC5508536 (Bioorganic & medicinal chemistry letters, 2017).
Blank lines part the entries; values can stand above or below the compound they belong to.

Legend:
rat M5 = target: T1, rat M5 (Rattus norvegicus, UniProt P08911); assay: rat M5 intracellular calcium mobilization assay; type: cell-based
T1 sequence (P08911 1-531): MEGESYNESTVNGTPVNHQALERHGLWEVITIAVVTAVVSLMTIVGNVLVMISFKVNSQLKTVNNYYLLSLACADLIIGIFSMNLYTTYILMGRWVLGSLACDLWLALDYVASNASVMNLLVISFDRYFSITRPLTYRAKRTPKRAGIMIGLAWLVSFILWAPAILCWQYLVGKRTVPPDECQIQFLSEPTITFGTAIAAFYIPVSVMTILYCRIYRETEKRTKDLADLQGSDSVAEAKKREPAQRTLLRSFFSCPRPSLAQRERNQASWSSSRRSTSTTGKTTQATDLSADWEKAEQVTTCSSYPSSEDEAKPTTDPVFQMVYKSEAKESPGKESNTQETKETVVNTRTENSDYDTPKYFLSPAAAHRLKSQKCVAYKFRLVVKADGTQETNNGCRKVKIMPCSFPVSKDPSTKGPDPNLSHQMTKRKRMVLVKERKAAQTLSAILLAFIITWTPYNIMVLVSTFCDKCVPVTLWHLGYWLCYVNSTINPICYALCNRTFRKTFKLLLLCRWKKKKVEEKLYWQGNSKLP

[1] = cited from earlier work
[2] = rat; cited from earlier work

rat M5 potency relative to hM5 (rat M5): ≤ 2 fold
SMILES: O=C(c1ccc(F)c(F)c1)N1CCN2C(=O)c3ccccc3[C@@]12c1ccc(N2CCCC(F)(F)C2)cc1 [4d]

rat M5 potency relative to hM5 (rat M5): ≤ 2 fold
SMILES: O=C(c1ccc(F)c(F)c1)N1CCN2C(=O)c3ccccc3[C@@]12c1ccc(N2CCC(F)(F)CC2)cc1 [4f]

SMILES: O=C(c1ccc(F)c(F)c1)N1CCN2C(=O)c3ccccc3[C@@]12c1ccc(Cl)cc1 [compound 1]
elimination half-life t1/2 ([1]; rat): 80 h

SMILES: COc1ccc([C@@]23c4ccccc4C(=O)N2CCN3C(=O)c2cc(F)c(F)c(F)c2)cc1C [compound 2]
CLp ([1]; rat PK): > 4.2 L/h/kg
CNS penetration [2]: limited CNS penetration
